pEC50, pKi: −log10 of the molar value.
Key:
[1] = target: sGC α1/β1 heterodimer (Homo sapiens (Human), UniProt Q02108+Q02153); assay: Cell-based sGC functional assay (cyclic GMP assay for sGC activator: CASA assay); parameters: % Activation: concentration or dose not given beside the values; details: CHO-K1/sGC cells; for % Activation: activity expressed as percentage of compound A (standard); for pEC50: inflection point, 4P fit, read-out: IP; for Emax: CHO-K1, activity expressed as percentage of compound A (standard), read-out: % Activation
From the text: Cell-Based sGC Functional Assay (Cyclic GMP Assay for sGC Activator: CASA Assay)
Soluble guanylate cyclase (sGC) is a heme-containing enzyme that converts GTP to secondary messenger cGMP. Increases in cGMP levels affect several physiological processes including vasorelaxation through multiple downstream pathways. […] Heme-dependent activators (HDAs) preferentially activate sGC containing a ferrous heme group. To determine the effect of sGC activators on enzyme activity, the CASA assay was developed to monitor the generation of cGMP in a cell line that stably expresses the heterodimeric sGC protein.
A CHO-K1 cell line stably expressing the sGC α1/β1 heterodimer was generated using a standard transfection protocol. CHO-K1 cells were transfected with plasmids pIREShyghsGCα1 and pIRESneo-hsGCβ1 simultaneously using FUGENE reagent. Clones that stably express both subunits were selected with hygromycin and neomycin for ˜2 weeks. Clone #7 was chosen for the assay and was designated CHO-K1/sGC. CHO-K1/sGC cells were maintained in F-K12 medium containing 10% heat-inactivated Fetal Bovine Serum (FBS), 100 μg/mL penicillin/streptomycin, 0.5 mg/mL hygromycin and 0.25 mg/mL G418. The cells were then cryopreserved in LN2. On the day of the assay, the cells were thawed and resuspended in EBSS Assay Buffer (Sigma, E3024) supplemented with 5 mM MgCl2, 10 mM HEPES (4-(2-hydroxyethyl)piperazine-1-ethanesulfonic acid) and 0.05% BSA (bovine serum albumin) (EAB) and cell density was then adjusted to 2.25×10^5/mL with EAB. IBMX (3-isobutyl-1-methylxanthin, 0.5 mM) was added to inhibit degradation of cGMP. Compounds were diluted from DMSO stock solutions and added to the assay at a final DMSO concentration of 2.5%. Cells were pre-incubated in the presence and absence of 1 μM of Diethylenetriamine/nitric oxide adduct (DETA-NO; Sigma, 17018) for 30 min at 25° C. Compounds are subsequently added and incubated for 1 hr at 37° C. At the end of the incubation period, the reaction was terminated and the cells were lysed with the detection reagents from Cisbio Kits. The level of intracellular cGMP was determined using an HTRF-based assay kit (CisBio, 62GM2PEC), which detects the displacement of a fluorescence labeled cGMP from its specific antibody. The cGMP produced by test compounds was directly compared to the maximum cGMP production (this value was set to equal 100% activation.) of the published sGC-HDA compound A:
(Example 1 in WO 2010/065275, published Jun. 10, 2010). The test compounds' activity were then expressed as a percentage of compound A, the standard in every experiment. This percent activation was calculated either in the presence or absence of DETA-NO which was then plotted. Inflection points (IP) and maximum fold induction was derived using Abase analysis software for 4P fit.

[2] = target: human recombinant sGC enzyme (Homo sapiens (Human), UniProt Q02108+Q02153); assay: Size Exclusion Chromatography (SEC) competition binding assay using [3H] Ex-77B as the radioligand; details: [3H] Ex-77B radioligand, 24 hours at 37° C.
Description: Binding Assay: The binding potencies of sGC compounds to the human recombinant sGC enzyme were determined in a Size Exclusion Chromatography (SEC) competition binding assay using [^3H] Ex-77B as the radioligand. [^3H] Ex-77B was prepared using a standardardized tritium exchange procedure. The parent (non-labeled) molecule was first iodinated then a Pd-catalyzed iodine to tritium exchange provided the labeled compound. […] Assays were conducted in 96-well plates in a total volume of 200 μL. […] Non-specific binding was defined by competition with 1 μM of Ex-77B. After the incubation period, the binding mixtures were loaded onto the gel-filtration plate (ThermoFischer Cat. No. 89808) pre-equilibrated with binding buffer and spun at 1000×g for 3 min at 4° C. on a Bench top centrifuge. The collected eluates in White Frame Clear Well Isoplates (Perkin Elmer Cat #6005040) received 100 μl of UltimaGold scintillation cocktail. The sealed plates were shaken vigorously and span, and counted after 6 hours with a Wallac Microbeta TriLux 1450 LSC & Luminescence Counter (Perkin Elmer). Data from competition experiments were analyzed to determine Ki values using one site fit Ki equation.

Row | Compound | % Activation [1] | pEC50 [1] | pKi [2] | Emax [1]
1 | CC1CCC(Cn2nc(-c3nc(N)c4c(n3)NC(=O)[C@@]4(C)c3ccc(CCC(=O)O)cc3)c3ccc(Cl)cc32)CC1 (single isomer, unassigned) [Example 5BB] | 107% | 6.48 | 9.74 | 
2 | C[C@@]1(c2ccc(CCC(=O)O)cc2)C(=O)Nc2nc(-c3nn(Cc4ncccc4F)c4cc(Cl)ccc34)nc(N)c21 (single isomer, unassigned) [Example 57B] |  | 5.97 | 10.02 | 104%
3 | C[C@@]1(c2ccc(CCC(=O)O)cc2)C(=O)Nc2nc(-c3nn(Cc4c(F)cccc4F)c4cc(Cl)ccc34)nc(N)c21 (single isomer, unassigned) [Example 64B] |  | 6.52 | 10.12 | 101%
4 | CC(C)(Cc1csc([C@]2(C)C(=O)Nc3nc(-c4nn(CC5CCCCO5)c5ncccc45)nc(N)c32)n1)C(=O)O (single isomer, unassigned) [Example 123AA] |  | 6.06 | 8.91 | 79%
5 | CC(C)(Cc1coc(C2(C)C(=O)Nc3nc(-c4nn(CC5CCCCO5)c5ncccc45)nc(N)c32)n1)C(=O)O (single isomer, unassigned) [Example 124AB, 3-{2-[4-amino-5-methyl-6-oxo-2-{1-[tetrahydro-2H-pyran-2-ylmethyl]-1H-pyrazolo[3,4-b]pyridin-3-yl}-6,7-dihydro-5H-pyrrolo[2,3-d]pyrimidin-5-yl]-1,3-oxazol-4-yl}-2,2-dimethylpropanoic acid] |  |  | 9.21 | 
6 | CC1CCC(Cn2nc(-c3nc(N)c4c(n3)NC(=O)C4(C)c3nc(CC(C)(C)C(=O)O)co3)c3cccnc32)CC1 (single isomer, unassigned) [Example 126AA, 3-{2-[4-amino-5-methyl-2-{1-[4-methylcyclohexylmethyl]-1H-pyrazolo[3,4-b]pyridin-3-yl}-6-oxo-6,7-dihydro-5H-pyrrolo[2,3-d]pyrimidin-5-yl]-1,3-oxazol-4-yl}-2,2-dimethylpropanoic acid] | 89.0% | 7.13 | 10.00 | 
7 | CC1(c2ccc(C(=O)O)cc2)C(=O)Nc2nc(-c3nn(CCC(F)(F)C(F)(F)F)c4cc(Cl)ccc34)nc(N)c21 (centres unmarked) [Example 155B, 4-{4-amino-2-[6-chloro-1-(3,3,4,4,4-pentafluorobutyl)-1H-indazol-3-yl]-5-methyl-6-oxo-6,7-dihydro-5H-pyrrolo[2,3-d]pyrimidin-5-yl} benzoic acid] |  |  | 9.38 | 
8 | C[C@@]1(c2ccc(CCc3nn[nH]n3)cc2)C(=O)Nc2nc(-c3nn(Cc4ncccc4F)c4ccccc34)nc(N)c21 [Example 245B, (S)-5-{4-[2-(2H-tetrazol-5-yl)ethyl]phenyl}-4-amino-2-{1-[(3-fluoro-pyridin-2-yl)methyl]-1H-indazol-3-yl}-5-methyl-5,7-dihydro-6H-pyrrolo[2,3-d] pyrimidin-6-one] |  |  | 9.48 | 

More lines, in order of rising pKi [2], values ahead:

Row | % Activation [1] | pEC50 [1] | pKi [2] | Emax [1] | Compound
9 |  | 5.59 | 8.36 | 94% | COCCn1nc(-c2nc(N)c3c(n2)NC(=O)[C@@]3(C)c2ccc(CCC(=O)O)cc2)c2ccc(Cl)cc21 (single isomer, unassigned) [Example 40B]
10 | 95.8% | 5.71 | 9.06 |  | CC(C)(Cc1csc([C@]2(C)C(=O)Nc3nc(-c4nn(CC5CCCCO5)c5ncccc45)nc(N)c32)n1)C(=O)O (single isomer, unassigned) [Example 123AB]
11 |  |  | 9.11 |  | CC1CCC(Cn2nc(-c3nc(N)c4c(n3)NC(=O)[C@@]4(C)c3nc(CC(C)(C)C(=O)O)cs3)c3cccnc32)CC1 (single isomer, unassigned) [Example 125AA]
12 |  | 5.80 | 9.30 | 76.5% | CC(C)(Cc1coc(C2(C)C(=O)Nc3nc(-c4nn(CC5CCCCO5)c5ncccc45)nc(N)c32)n1)C(=O)O (single isomer, unassigned) [Example 124AA, 3-{2-[4-amino-5-methyl-6-oxo-2-{1-[tetrahydro-2H-pyran-2-ylmethyl]-1H-pyrazolo[3,4-b]pyridin-3-yl}-6,7-dihydro-5H-pyrrolo[2,3-d]pyrimidin-5-yl]-1,3-oxazol-4-yl}-2,2-dimethylpropanoic acid]
13 |  |  | 9.34 |  | CC(C)(Cc1coc(C2(C)C(=O)Nc3nc(-c4nn(CC5CCCCO5)c5cc(F)ccc45)nc(N)c32)n1)C(=O)O (single isomer, unassigned) [Example 134AB, 3-{2-[4-amino-2-{6-fluoro-1-[tetrahydro-2H-pyran-2-ylmethyl]-1H-indazol-3-yl}-5-methyl-6-oxo-6,7-dihydro-5H-pyrrolo[2,3-d]pyrimidin-5-yl]-1,3-oxazol-4-yl}-2,2-dimethylpropanoic acid]
14 |  | 7.25 | 9.47 | 138% | CC1CCC(Cn2nc(-c3nc(N)c4c(n3)NC(=O)[C@@]4(C)c3nc(CC(C)(C)C(=O)O)cs3)c3cccnc32)CC1 (single isomer, unassigned) [Example 125AB]
15 |  |  | 9.55 |  | CC(C)(Cc1coc(C2(C)C(=O)Nc3nc(-c4nn(CC5CCCCO5)c5ccccc45)nc(N)c32)n1)C(=O)O (single isomer, unassigned) [Example 230AB, 3-{2-[4-amino-5-methyl-6-oxo-2-{1-[tetrahydro-2H-pyran-2-ylmethyl]-1H-indazol-3-yl}-6,7-dihydro-5H-pyrrolo[2,3-d]pyrimidin-5-yl]-1,3-oxazol-4-yl}-2,2-dimethyl-propanoic acid]
16 |  |  | 9.74 |  | CC1(c2cc(C(=O)O)ccn2)C(=O)Nc2nc(-c3nn(Cc4ccccc4F)c4cc(Cl)ccc34)nc(N)c21 (centres unmarked) [Example 219A, 2-{4-amino-2-[6-chloro-1-(2-fluorobenzyl)-1H-indazol-3-yl]-5-methyl-6-oxo-6,7-dihydro-5H-pyrrolo[2,3-d]pyrimidin-5-yl} pyridine-4-carboxylic acid]
17 |  |  | 9.74 |  | CC1(c2cccc(-c3nn[nH]n3)c2)C(=O)Nc2nc(-c3nn(CCC(F)(F)C(F)(F)F)c4cc(Cl)ccc34)nc(N)c21 (single isomer, unassigned) [Example 251B, 4-amino-2-[6-chloro-1-(3,3,4,4,4-penta-fluorobutyl)-1H-indazol-3-yl]-5-methyl-5-[3-(1H-tetrazol-5-yl)phenyl]-5,7-dihydro-6H-pyrrolo[2,3-d] pyrimidin-6-one]
18 |  | 5.90 | 9.89 | 85% | C[C@@]1(c2ccc(CCC(=O)O)cc2)C(=O)Nc2nc(-c3nn(CC4CCCCO4)c4cc(Cl)ccc34)nc(N)c21 (single isomer, unassigned) [Example 6A]
19 | 109.2% | 6.70 | 10.11 |  | CC1CCC(Cn2nc(-c3nc(N)c4c(n3)NC(=O)C4(C)c3nc(CC(C)(C)C(=O)O)co3)c3cccnc32)CC1 (single isomer, unassigned) [Example 126AB, 3-{2-[4-amino-5-methyl-2-{1-[4-methylcyclohexylmethyl]-1H-pyrazolo[3,4-b]pyridin-3-yl}-6-oxo-6,7-dihydro-5H-pyrrolo[2,3-d]pyrimidin-5-yl]-1,3-oxazol-4-yl}-2,2-dimethylpropanoic acid]
